Earlier results on one molecule are cited in patent publication US4496540A, “Therapeutic compounds” (Biomeasure, Inc., priority 1982, dated 1985).

Structures are written as SMILES.

In the series the test system is enkephalinase.

As to `O=C(O)CNC(=O)C(CS)Cc1ccccc1` (racemic) [Thiorphan, (DL-3-mercapto-2-benzylpropanoyl) glycine], where the note is “in vitro, Roques et al. (1980)”, the “protection of the enkephalins from the action of enkephalinase in vitro” value is “protects the enkephalins from the action of enkephalinase in vitro in nanomolar concentration”. In addition, under “known inhibitors, Llorens et al. (1981)”, the inhibition of enkephalinase entry is “inhibited”.
